The text below walks through data of patent publication US10940188B2, “Compounds and methods for treatment and prevention of Flavivirus infection” (priority 2016, dated 2021).

For experiment [1], the system named is ZIKV-induced cell death in human astrocytes. The experiment can be described thus: ATP cell viability assay for ZIKV-induced cell death, human astrocytes. It counts as cell-based. Particulars: ZIKV-infected human astrocytes.
Experiment [2] relates to ZIKV-induced caspase 3/7 activity in SNB-19 cells. The experiment can be described thus: Caspase 3/7 activity assay, ZIKV-infected SNB-19 cells. It counts as cell-based. In outline: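 Human NPCs, SNB-19 cells or astrocytes seeded 16 h, compound added 30 min before ZIKV, then 6 h infection at 37 °C. Caspase-Glo 3/7 luminescence after 30 min at room temperature, normalized to uninfected cells (0%) and ZIKV-infected cells (100%).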

The mark [3] stands for this setting: Homo sapiens, ZIKV-infected SNB-19 cells, read-out: Caspase 3 (IC50, uM) SNB-19.
Setting [4] is: Homo sapiens, ZIKV-infected SNB-19 cells, read-out: Caspase 3 (efficacy, %) SNB-19.
Setting [5] is: ZIKV-infected SNB-19 cells, read-out: Caspase 3 (IC50, uM) SNB-19.

Where “and” joins values, the source holds several entries; their conditions need not be identical. Equal entries are not always repeated. Where two headings read alike, the source gives them in different places.

Consider `Cc1ccc(O)c(-n2nc3ccccc3n2)c1` [2-(2H-Benzotriazol-2-yl)-4-methylphenol], for which the “Cell viability (efficacy, %) Astrocyte” value in experiment [1] is 0.0%. For the same compound, in experiment [2] (setting [3]), the IC50 turned out to be 8.69 µM. Besides, the Emax in experiment [2] (setting [4]) worked out at 80.1%.
With `Nc1nc2ccc([N+](=O)[O-])cc2s1` [2-Amino-6-nitrobenzothiazole], the “Cell viability (efficacy, %) Astrocyte” value in experiment [1] is on record as 0.0%. Besides, the half-inhibitory concentration (IC50) in experiment [2] (setting [3]) worked out at 53.1 µM. For the same compound, the Emax in experiment [2] (setting [4]) came to 46.1%.
Take `CCOCCOC(=O)C=Cc1ccc(OC)cc1` [2-Ethoxylethyl-p-methoxycinnamate]: the “Cell viability (efficacy, %) Astrocyte” value in experiment [1] is 0.0%. Moreover, the IC50 in experiment [2] (setting [3]) came out at 27.5 µM. In experiment [2] (setting [4]), the Emax worked out at 53%.
As to `O=C(O)c1cc([N+](=O)[O-])ccc1NCCCc1ccccc1` [5-Nitro-2-(3-phenylpropylamino)benzoic acid], the “Cell viability (efficacy, %) Astrocyte” value in experiment [1] is given as 0.0%. Besides, the IC50 in experiment [2] (setting [3]) is 13 µM. Moreover, in experiment [2] (setting [4]), the Emax was determined as 82.9%.
As for `O=C1NC(=O)/C(=C/c2ccc(-c3ccc(F)cc3O)o2)S1` [AS-252424], in experiment [1], the “Cell viability (efficacy, %) Astrocyte” value was determined as 0.0%. For the same compound, the “Caspase 3 (efficacy, %) SNB-19” value in experiment [2] (ZIKV-infected SNB-19 cells) was 38.0%. In addition, the IC50 in experiment [2] (setting [5]) was determined as 2.18 µM.
`O=C1c2ccccc2C(=O)c2c1ccc(O)c2O` [Alizarin]: in experiment [1], the “Cell viability (efficacy, %) Astrocyte” value came out at 0.0%. Besides, the IC50 in experiment [2] (setting [3]) was 21.8 µM. Also, in experiment [2] (setting [4]), the Emax was determined as 40.9%.
Turning to `COc1ccc(-c2cc(=S)ss2)cc1` [Anethole trithione], the “Cell viability (efficacy, %) Astrocyte” value in experiment [1] is 0.0%. In addition, the IC50 in experiment [2] (setting [3]) was 15.5 µM. The Emax in experiment [2] (setting [4]) is 85.5%.
As for `N#CC1(c2ccc(NC(=O)c3cccnc3NCc3ccncc3)cc2)CCCC1` [Apatinib], in experiment [1], the “Cell viability (efficacy, %) Astrocyte” value is listed as 0.0%. Also, the concentration for half-maximal inhibition (IC50) in experiment [2] (setting [3]) came to 24.5 µM. In addition, the Emax in experiment [2] (setting [4]) worked out at 61.2%.
For `O=C(Nc1ccc(C(=O)O)c(O)c1)c1ccccc1` [Benzoylpas], the “Cell viability (efficacy, %) Astrocyte” value in experiment [1] was determined as 0.0%. In experiment [2] (setting [3]), the IC50 worked out at 6.9 µM. Moreover, the Emax in experiment [2] (setting [4]) stood at 92.8%.
Consider `O=C(OCc1ccccc1)c1ccc(O)cc1` [Benzylparaben], for which the “Cell viability (efficacy, %) Astrocyte” value in experiment [1] is recorded as 0.0%. Further, the IC50 in experiment [2] (setting [3]) came out at 19.5 µM. The Emax in experiment [2] (setting [4]) was 91.8%.
For the compound `O=C1NC(=O)C(=Cc2ccc(-c3ccc(F)cc3)o2)S1` [CAY10505], the “Cell viability (efficacy, %) Astrocyte” value in experiment [1] is reported as 0.0%. In experiment [2] (ZIKV-infected SNB-19 cells), the “Caspase 3 (efficacy, %) SNB-19” value came to 91.2%. Besides, the IC50 in experiment [2] (setting [5]) turned out to be 17.3 µM.
With `CN(C)CCCSc1ccccc1NC(=O)/C=C/c1ccccc1` [Cinanserin], in experiment [1], the “Cell viability (efficacy, %) Astrocyte” value was 0.0%. Besides, the IC50 in experiment [2] (setting [3]) is 12.3 µM. The Emax in experiment [2] (setting [4]) was 92%.
Turning to `CC(=O)Oc1cccc2c1C(=O)c1c(OC(C)=O)cc(C(=O)O)cc1C2=O` [Diacerein], the IC50 in experiment [1] (Astrocyte, read-out: Cell viability (IC50, uM) Astrocyte) stood at 30.8 µM; in experiment [2] (setting [3]), 17.3 µM. For the same compound, the “Cell viability (efficacy, %) Astrocyte” value in experiment [1] stood at 35.2%. In addition, the Emax in experiment [2] (setting [4]) stood at 63.2%.
Turning to `O=C(Oc1ccccc1)c1cccc(C(=O)Oc2ccccc2)c1` [Diphenyl isophthalate], in experiment [1], the “Cell viability (efficacy, %) Astrocyte” value is 0.0%. For the same compound, the IC50 in experiment [2] (setting [3]) is 4.73 µM. The Emax in experiment [2] (setting [4]) is 92.8%.
Consider `Cc1cc(O)c2c(c1)C(=O)c1cc(O)cc(O)c1C2=O` [Emodin], for which the “Cell viability (efficacy, %) Astrocyte” value in experiment [1] stood at 0.0%. Further, in experiment [2] (setting [3]), the IC50 amounted to 4.35 µM. The Emax in experiment [2] (setting [4]) was determined as 83.3%.
With `O=C(O)c1ccccc1NCCc1ccccc1` [Enfenamic acid], the “Cell viability (efficacy, %) Astrocyte” value in experiment [1] was found to be 0.0%. For the same compound, the Emax in experiment [2] (setting [4]) was 49.5%.
For the compound `O=S(=O)(O)c1ccc2[nH]c(-c3ccccc3)nc2c1` [Ensulizole], the “Cell viability (efficacy, %) Astrocyte” value in experiment [1] is 0.0%. In addition, the IC50 in experiment [2] (Homo sapiens, SNB-19, read-out: Caspase 3 (IC50, uM) SNB-19) amounted to 1.84 µM. In experiment [2] (Homo sapiens, SNB-19, read-out: Caspase 3 (efficacy, %) SNB-19), the Emax was 73.3%.
As for `c1ccc(CCNc2nc(-c3ccccc3)cs2)cc1` [Fanetizole], the “Cell viability (efficacy, %) Astrocyte” value in experiment [1] was 0.0%. In experiment [2] (setting [3]), the IC50 amounted to 17.3 µM. The Emax in experiment [2] (setting [4]) came to 78.1%.
In the same order, the values of `O=C(O)CCC(=O)c1ccc(-c2ccccc2)cc1` [Fenbufen] are 0.0%, 24.5 µM and 76.3%.
`CN1CC(=O)NC1=NC(=O)Nc1cccc(Cl)c1` [Fenobam]: in experiment [1], the “Cell viability (efficacy, %) Astrocyte” value stood at 0.0%. For the same compound, the “Caspase 3 (efficacy, %) SNB-19” value in experiment [2] (ZIKV-infected SNB-19 cells) is given as 110%. Further, the IC50 in experiment [2] (setting [5]) is 7.31 µM.
On to `O=C(O)c1ccccc1Nc1cccc(C(F)(F)F)c1` [Flufenamic acid], for which the “Cell viability (efficacy, %) Astrocyte” value in experiment [1] was determined as 0.0%. The IC50 in experiment [2] (setting [3]) is 10.9 µM. Besides, the Emax in experiment [2] (setting [4]) was 61.5%.
Regarding `C/C1=C2/[N-][C@H]([C@H](CC(N)=O)[C@@]2(C)CCC(=O)NC[C@@H](C)OP(=O)([O-])O[C@H]2[C@@H](O)[C@@H](n3cnc4cc(C)c(C)cc43)O[C@@H]2CO)[C@]2(C)N=C(/C(C)=C3N=C(/C=C4N=C1[C@@H](CCC(N)=O)C\4(C)C)[C@@H](CCC(N)=O)[C@]\3(C)CC(N)=O)[C@@H](CCC(N)=O)[C@]2(C)CC(N)=O.[Co+3].[OH-]` [Hydroxocobalamin], the “Cell viability (efficacy, %) Astrocyte” value in experiment [1] is 0.0%. The “Caspase 3 (efficacy, %) SNB-19” value in experiment [2] (ZIKV-infected SNB-19 cells) is 85.7%. For the same compound, the IC50 in experiment [2] (setting [5]) was 1.46 µM.
As for `CCC(C(=O)O)c1ccc(N2Cc3ccccc3C2=O)cc1` (centres unmarked) [Indobufen], the “Cell viability (efficacy, %) Astrocyte” value in experiment [1] is given as 0.0%. The IC50 in experiment [2] (setting [3]) was determined as 7.74 µM. For the same compound, the Emax in experiment [2] (setting [4]) came to 85.8%.
For `O=C(c1ccccc1)c1ccc2n1CCC2C(=O)O` (centres unmarked) [Ketorolac tromethamine], the “Cell viability (efficacy, %) Astrocyte” value in experiment [1] is 0.0%. Also, the IC50 in experiment [2] (setting [3]) stood at 17.3 µM. The Emax in experiment [2] (setting [4]) was determined as 84.5%.
In the case of `Cc1cccc(C#Cc2ccccc2)n1` [MPEP, 2-Methyl-6-(phenylethynyl)pyridine], the “Cell viability (efficacy, %) Astrocyte” value in experiment [1] was determined as 0.0%. Moreover, in experiment [2] (setting [3]), the IC50 stood at 5.18 µM. The Emax in experiment [2] (setting [4]) amounted to 98.6%.
In the same order, the values of `CN1CCN(c2cc3c(nn2)Oc2ccccc2N3C)CC1` [Pipofezine] are 0.0%, 15.1 µM and 31.5%.
Turning to `Cc1cccc(/C=C/c2ccccc2)n1` [SIB 1893], in experiment [1], the “Cell viability (efficacy, %) Astrocyte” value stood at 0.0%. Moreover, in experiment [2] (ZIKV-infected SNB-19 cells), the “Caspase 3 (efficacy, %) SNB-19” value turned out to be 105%. The IC50 in experiment [2] (setting [5]) was 15.5 µM.
Turning to `CC(C(=O)O)c1ccc(C(=O)c2cccs2)cc1` (centres unmarked) [Suprofen], the “Cell viability (efficacy, %) Astrocyte” value in experiment [1] worked out at 0.0%. The concentration for half-maximal inhibition (IC50) in experiment [2] (setting [3]) was 17.3 µM. In experiment [2] (setting [4]), the Emax came out at 65.6%.
For the compound `c1ccc2[nH]c(-c3cscn3)nc2c1` [Thiabendazole], in experiment [1], the “Cell viability (efficacy, %) Astrocyte” value was 0.0%. The IC50 in experiment [2] (setting [3]) was 14.6 µM. In addition, the Emax in experiment [2] (setting [4]) was 89.4%.
With `CC(C(=O)O)c1ccc(C(=O)c2ccccc2)s1` (centres unmarked) [Tiaprofenic acid], the “Cell viability (efficacy, %) Astrocyte” value in experiment [1] is recorded as 0.0%. Moreover, the IC50 in experiment [2] (setting [3]) is 10.3 µM. Also, the Emax in experiment [2] (setting [4]) amounted to 96.2%.
`COc1cccc(-c2ccc(NC(=O)C3=C(C(=O)O)CCC3)c(F)c2)c1` [Vidofludimus]: in experiment [1], the “Cell viability (efficacy, %) Astrocyte” value is listed as 0.0%. Further, the IC50 in experiment [2] (setting [3]) was found to be 3.66 µM. Further, the Emax in experiment [2] (setting [4]) stood at 101%.
Take Flurbiprofen axetil: the “Cell viability (efficacy, %) Astrocyte” value in experiment [1] was 0.0%. Further, the “Caspase 3 (efficacy, %) SNB-19” value in experiment [2] (ZIKV-infected SNB-19 cells) is 45.7%. Besides, the IC50 in experiment [2] (setting [5]) came out at 19.5 µM.
Turning to Vitamin B12, the “Cell viability (efficacy, %) Astrocyte” value in experiment [1] stood at 0.0%. For the same compound, the IC50 in experiment [2] (setting [5]) was 11.6 µM and 13.4 µM.
